Target: T1, GST-tagged truncated LRRK2 (Homo sapiens, UniProt Q5S007)
T1 construct: GST-tagged truncated LRRK2 from Invitrogen (Cat # PV4874); GST; purchased Invitrogen PV4874
Assay: LRRK2 kinase assay (Lantha Screen)
Assay type: biochemical
Details: 1 mM ATP (head); a = geometric mean of >=4 determinations, b = single determination; read-out: LRRK2 LANTHA EC50 at 1 mM ATP; Geometric mean of 2-3 determinations unless otherwise indicated
Experimental: LRRK2 kinase activity was measured using Lantha Screen technology from Invitrogen. GST-tagged truncated LRRK2 from Invitrogen (Cat # PV4874) was incubated with a fluorescein-labeled peptide substrate based upon ezrin/radixin/moesin (ERM), also known as LRRKtide (Invitrogen cat # PR8976A), in the presence of a dose response of compound. Upon completion, the assay was stopped and detected with a terbium labeled anti-phospho-ERM antibody (Invitrogen, cat # PR8975A). […] The compound dose response was prepared by diluting compound to a top concentration of 3.16 mM in 100% DMSO and serial diluted by half-log in DMSO 11 times. Aliquots (3.5 μL) of the 100% DMSO dose response were mixed with 46.5 μL water then 1 μL of this mixture was added to the 3 μL substrate mix in the 384-well plate. The kinase reaction was started with 3 μL of a working solution of LRRK2 enzyme at a concentration of 4 μg/mL. […] The reaction was allowed to progress at room temperature for two hours and then stopped with the addition of 7 μL of detection buffer (20 mM Tris pH 7.6, 0.01% NP-40, 0.02% NaN3, 6 mM EDTA with 2 nM terbium labeled anti-phospho-ERM). After an incubation of 1 hour at room temperature, the plate was read on an Envision with an excitation wavelength of 340 nm and a reading emission at both 520 nm and 495 nm. The ratio of the 520 nm and 495 nm emission was used to analyze the data.

T1 sequence (Q5S007 970-2527 limits assumed): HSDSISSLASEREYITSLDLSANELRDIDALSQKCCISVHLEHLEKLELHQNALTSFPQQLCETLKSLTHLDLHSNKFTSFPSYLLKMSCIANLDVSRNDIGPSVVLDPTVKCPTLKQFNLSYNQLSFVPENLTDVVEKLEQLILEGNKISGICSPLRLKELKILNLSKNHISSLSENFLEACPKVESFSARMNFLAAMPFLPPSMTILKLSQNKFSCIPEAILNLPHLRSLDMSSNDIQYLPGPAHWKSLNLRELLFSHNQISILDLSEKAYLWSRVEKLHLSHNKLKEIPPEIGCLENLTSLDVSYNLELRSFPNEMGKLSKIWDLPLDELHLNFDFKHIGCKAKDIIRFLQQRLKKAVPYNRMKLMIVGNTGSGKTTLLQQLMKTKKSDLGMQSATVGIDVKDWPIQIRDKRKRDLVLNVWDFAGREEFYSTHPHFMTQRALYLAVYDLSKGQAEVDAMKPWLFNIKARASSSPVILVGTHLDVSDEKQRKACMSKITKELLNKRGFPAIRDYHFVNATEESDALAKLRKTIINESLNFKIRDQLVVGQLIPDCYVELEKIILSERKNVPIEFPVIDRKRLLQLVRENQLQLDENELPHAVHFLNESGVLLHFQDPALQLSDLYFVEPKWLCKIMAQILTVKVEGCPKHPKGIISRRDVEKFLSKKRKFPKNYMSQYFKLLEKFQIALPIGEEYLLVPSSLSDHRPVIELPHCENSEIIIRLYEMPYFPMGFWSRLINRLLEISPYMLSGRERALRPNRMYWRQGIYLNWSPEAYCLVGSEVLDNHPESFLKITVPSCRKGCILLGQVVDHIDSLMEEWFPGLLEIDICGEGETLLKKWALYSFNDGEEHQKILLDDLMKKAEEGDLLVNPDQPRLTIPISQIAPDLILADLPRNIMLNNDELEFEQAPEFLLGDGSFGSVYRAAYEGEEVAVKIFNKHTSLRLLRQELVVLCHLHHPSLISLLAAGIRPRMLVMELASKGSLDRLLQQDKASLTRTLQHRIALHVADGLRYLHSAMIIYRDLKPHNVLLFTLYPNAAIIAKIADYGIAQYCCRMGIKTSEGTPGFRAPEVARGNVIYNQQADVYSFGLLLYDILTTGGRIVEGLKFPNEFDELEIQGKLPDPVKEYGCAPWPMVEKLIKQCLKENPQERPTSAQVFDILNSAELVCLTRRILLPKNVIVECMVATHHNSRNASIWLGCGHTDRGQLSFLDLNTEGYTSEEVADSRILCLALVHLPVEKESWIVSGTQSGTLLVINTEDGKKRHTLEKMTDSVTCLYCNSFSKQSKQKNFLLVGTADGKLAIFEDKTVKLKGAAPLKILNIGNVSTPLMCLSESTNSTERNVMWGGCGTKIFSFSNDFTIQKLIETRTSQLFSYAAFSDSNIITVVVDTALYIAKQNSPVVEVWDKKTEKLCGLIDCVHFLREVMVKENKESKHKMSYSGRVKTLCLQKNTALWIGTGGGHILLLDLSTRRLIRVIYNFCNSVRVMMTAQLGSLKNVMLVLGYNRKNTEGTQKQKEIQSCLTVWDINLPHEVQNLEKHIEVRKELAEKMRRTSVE

Row | EC50 | SMILES
1 | 4.28 nM | N#Cc1cccc(-c2c[nH]c3nccc(N4CCOCC4)c23)c1 [Example 1, 3-[4-(Morpholin-4-yl)-1H-pyrrolo[2,3-b]pyridin-3-yl]benzonitrile]
2 | 5.17 nM | N#Cc1cccc(-c2c[nH]c3nccc(N4CCOCC4)c23)c1F [Example 2, 2-Fluoro-3-[4-(morpholin-4-yl)-1H-pyrrolo[2,3-b]pyridin-3-yl]benzonitrile]
3 | 14 nM | c1cnn2c(-c3c[nH]c4nccc(N5CCOCC5)c34)cnc2c1 [Example 3, 3-[4-(Morpholin-4-yl)-1H-pyrrolo[2,3-b]pyridin-3-yl]imidazo[1,2-b]pyridazine]
4 | 2.85 nM | Cn1cc(-c2c[nH]c3nccc(N4CCOCC4)c23)cc1C#N [Example 4, 1-Methyl-4-[4-(morpholin-4-yl)-1H-pyrrolo[2,3-b]pyridin-3-yl]-1H-pyrrole-2-carbonitrile]
5 | 5.26 nM | Cn1cc(-c2c[nH]c3nccc(N4CCOCC4)c23)nc1C#N [Example 5, 1-Methyl-4-[4-(morpholin-4-yl)-1H-pyrrolo[2,3-b]pyridin-3-yl]-1H-imidazole-2-carbonitrile]
6 | 14.2 nM | Cn1cc(-c2c[nH]c3nncc(N4CCOCC4)c23)cc1C#N [Example 6, 1-Methyl-4-[4-(morpholin-4-yl)-7H-pyrrolo[2,3-c]pyridazin-5-yl]-1H-pyrrole-2-carbonitrile]
7 | 1.3 nM | Cn1cc(-c2c(Cl)[nH]c3nccc(N4CCOCC4)c23)cc1C#N [Example 7, 4-[2-Chloro-4-(morpholin-4-yl)-1H-pyrrolo[2,3-b]pyridin-3-yl]-1-methyl-1H-pyrrole-2-carbonitrile]
8 | 22.1 nM | Cc1[nH]c2nccc(N3CCOCC3)c2c1-c1cccc(C#N)c1 [Example 8, 3-[2-Methyl-4-(morpholin-4-yl)-1H-pyrrolo[2,3-b]pyridin-3-yl]benzonitrile]
9 | 208 nM | Cc1cc(N2CCOCC2)c2c(-c3cccc(C#N)c3)c[nH]c2n1 [Example 9, 3-[6-Methyl-4-(morpholin-4-yl)-1H-pyrrolo[2,3-b]pyridin-3-yl]benzonitrile]
10 | 79.8 nM | N#Cc1cccc(-c2c[nH]c3ncc(CO)c(N4CCOCC4)c23)c1 [Example 10, 3-[5-(Hydroxymethyl)-4-(morpholin-4-yl)-1H-pyrrolo[2,3-b]pyridin-3-yl]benzonitrile]
11 | 24.2 nM | N#Cc1cccc(-c2c[nH]c3ncc(C#N)c(N4CCOCC4)c23)c1 [Example 11, 3-(3-Cyanophenyl)-4-(morpholin-4-yl)-1H-pyrrolo[2,3-b]pyridine-5-carbonitrile]
12 | 59.6 nM | Cn1cc(-c2c[nH]c3nccc(C4=CCOCC4)c23)cn1 [Example 12, 4-(3,6-Dihydro-2H-pyran-4-yl)-3-(1-methyl-1H-pyrazol-4-yl)-1H-pyrrolo[2,3-b]pyridine]
13 | 26.5 nM | Cn1cc(-c2c[nH]c3nccc(N4CCOCC4)c23)cn1 [Example 13, 3-(1-methyl-1H-pyrazol-4-yl)-4-(morpholin-4-yl)-1H-pyrrolo[2,3-b]pyridine]
14 | 25.9 nM | CN(C)c1c(C#N)cnc2[nH]cc(-c3cccc(C#N)c3F)c12 [Example 14, 3-(3-cyano-2-fluorophenyl)-4-(dimethylamino)-1H-pyrrolo[2,3-b]pyridine-5-carbonitrile]
15 | 92.3 nM | COc1ccc(F)cc1-c1c[nH]c2nccc(N3CCOCC3)c12 [Example 15, 3-(5-fluoro-2-methoxyphenyl)-4-(morpholin-4-yl)-1H-pyrrolo[2,3-b]pyridine]
16 | 44.3 nM | COc1cc(F)cc(-c2c[nH]c3nccc(N4CCOCC4)c23)c1 [Example 16, 3-(3-fluoro-5-methoxyphenyl)-4-(morpholin-4-yl)-1H-pyrrolo[2,3-b]pyridine]
17 | 137 nM | Cc1[nH]c2nccc(N3CCOCC3)c2c1-c1cnn(C)c1 [Example 17, 2-methyl-3-(1-methyl-1H-pyrazol-4-yl)-4-(morpholin-4-yl)-1H-pyrrolo[2,3-b]pyridine]

Row | EC50 | SMILES
18 | 95.4 nM | Cc1cc(N2CCOCC2)c2c(-c3cccc(C#N)c3F)c[nH]c2n1 [Example 18, 2-fluoro-3-[6-methyl-4-(morpholin-4-yl)-1H-pyrrolo[2,3-b]pyridin-3-yl]benzonitrile]
19 | 47.5 nM | N#Cc1cccc(-c2c[nH]c3nccc(N4CCOCC4)c23)n1 [Example 19, 6-[4-(morpholin-4-yl)-1H-pyrrolo[2,3-b]pyridin-3-yl]pyridine-2-carbonitrile]
20 | 53.7 nM | Clc1cccc(-c2c[nH]c3nccc(N4CCOCC4)c23)c1 [Example 20, 3-(3-chlorophenyl)-4-(morpholin-4-yl)-1H-pyrrolo[2,3-b]pyridine]
21 | 51.5 nM | Fc1cc(Cl)cc(-c2c[nH]c3nccc(N4CCOCC4)c23)c1 [Example 21, 3-(3-chloro-5-fluorophenyl)-4-(morpholin-4-yl)-1H-pyrrolo[2,3-b]pyridine]
22 | 130 nM | Fc1ccc(F)c(-c2c[nH]c3nccc(N4CCOCC4)c23)c1 [Example 22, 3-(2,5-difluorophenyl)-4-(morpholin-4-yl)-1H-pyrrolo[2,3-b]pyridine]
23 | 143 nM | Clc1ccccc1-c1c[nH]c2nccc(N3CCOCC3)c12 [Example 23, 3-(2-chlorophenyl)-4-(morpholin-4-yl)-1H-pyrrolo[2,3-b]pyridine]
24 | 16.8 nM | Fc1cccc(-c2c[nH]c3nccc(N4CCOCC4)c23)c1F [Example 24, 3-(2,3-difluorophenyl)-4-(morpholin-4-yl)-1H-pyrrolo[2,3-b]pyridine]
25 | 34.5 nM | Fc1cccc(-c2c[nH]c3nccc(N4CCOCC4)c23)c1 [Example 25, 3-(3-fluorophenyl)-4-(morpholin-4-yl)-1H-pyrrolo[2,3-b]pyridine]
26 | 29 nM | Fc1ccccc1-c1c[nH]c2nccc(N3CCOCC3)c12 [Example 26, 3-(2-fluorophenyl)-4-(morpholin-4-yl)-1H-pyrrolo[2,3-b]pyridine]
27 | 57.6 nM | Fc1ccc(Cl)cc1-c1c[nH]c2nccc(N3CCOCC3)c12 [Example 27, 3-(5-chloro-2-fluorophenyl)-4-(morpholin-4-yl)-1H-pyrrolo[2,3-b]pyridine]
28 | 96.3 nM | OCc1cccc(-c2c[nH]c3nccc(N4CCOCC4)c23)c1 [Example 28, {3-[4-(morpholin-4-yl)-1H-pyrrolo[2,3-b]pyridin-3-yl]phenyl}methanol]
29 | 72.5 nM | OCc1ccc(F)c(-c2c[nH]c3nccc(N4CCOCC4)c23)c1 [Example 29, {4-fluoro-3-[4-(morpholin-4-yl)-1H-pyrrolo[2,3-b]pyridin-3-yl]phenyl}methanol]
30 | 179 nM | Cc1nnc(-c2cccc(-c3c[nH]c4nccc(N5CCOCC5)c34)c2)o1 [Example 30, 3-[3-(5-methyl-1,3,4-oxadiazol-2-yl)phenyl]-4-(morpholin-4-yl)-1H-pyrrolo[2,3-b]pyridine]
31 | 124 nM | COc1cccc(-c2c[nH]c3nccc(N4CCOCC4)c23)c1 [Example 31, 3-(3-methoxyphenyl)-4-(morpholin-4-yl)-1H-pyrrolo[2,3-b]pyridine]
32 | 40.7 nM | Fc1c(Cl)cccc1-c1c[nH]c2nccc(N3CCOCC3)c12 [Example 32, 3-(3-chloro-2-fluorophenyl)-4-(morpholin-4-yl)-1H-pyrrolo[2,3-b]pyridine]
33 | 69.7 nM | Fc1cc(F)c(F)c(-c2c[nH]c3nccc(N4CCOCC4)c23)c1 [Example 33, 4-(morpholin-4-yl)-3-(2,3,5-trifluorophenyl)-1H-pyrrolo[2,3-b]pyridine]
